Experimental data taken from patent publication US20100292185A1, “BETA-LACTAMASE INHIBITORS” (priority 2009, published 2010).
Structures can show the parent of a compound that is named as a salt. Where two headings read alike, the source gives them in different places.

Legend:
p99 AmpC β-lactamase = molecular target: T1, p99 AmpC β-lactamase (Enterobacter cloacae, UniProt P05364); assay: β-lactamase enzyme inhibition assay (nitrocefin substrate), P99 AmpC; format: biochemical
T1 construct: expressed as native untagged proteins; made in house; host or cells: E. coli BL21(DE3)
T1 sequence (P05364 21-381): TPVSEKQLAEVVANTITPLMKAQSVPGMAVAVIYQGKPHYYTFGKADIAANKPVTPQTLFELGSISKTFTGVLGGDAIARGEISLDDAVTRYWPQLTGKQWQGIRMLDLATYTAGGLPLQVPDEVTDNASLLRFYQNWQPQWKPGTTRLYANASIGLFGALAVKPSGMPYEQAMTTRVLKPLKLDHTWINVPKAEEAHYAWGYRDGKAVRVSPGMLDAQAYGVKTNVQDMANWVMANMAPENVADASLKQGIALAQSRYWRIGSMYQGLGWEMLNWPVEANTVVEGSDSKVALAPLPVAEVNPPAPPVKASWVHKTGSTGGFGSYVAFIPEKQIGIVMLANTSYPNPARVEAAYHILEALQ
Experimental: (§1) Isolation of β-lactamases. For SHV-5, p99 AmpC, KPC-2 and CTX-M15 β-lactamases, E. coli BL21(DE3) bacterial cells carrying expression plasmids (expressed as native untagged proteins) for the individual β-lactamases were grown in 1 L of Superbroth (Teknova Inc. Hollister, Calif.) supplemented with 100 μg/ml kanamycin and 1×5052 (0.5% glycerol, 0.05% glucose and 0.2% α-lactose) at 35° C. for 18-20 hours. Cells were harvested by centrifugation (4,000×g, 4° C., 20 min), and resuspended in 50 ml of 10 mM HEPES pH 7.5 (1/20 of the initial volume). The cells were lysed by sonication (5 pulses of 45 seconds) at 45 W on ice. The lysates were clarified by centrifugation at 10,000×g for 40 minutes at 4° C. Samples were diluted 5-fold in 50 mM sodium acetate pH 5.0, stored overnight at 4° C., after which they were centrifuged at 10,000×g for 30 minutes to clarify, and filtered through 0.45 μm filters. The samples were loaded onto a 5 ml Capto S sepharose cation exchange column (GE Healthcare) pre-equilibrated with 50 mM sodium acetate pH 5.0. The column was washed with 5 column volumes of 50 mM sodium acetate pH 5.0 to wash out unbound protein and a linear gradient of NaCl (0 to 500 mM) was used to elute the protein (over 16 CV) from the column. Fractions were assayed for β-lactamase activity using Centa (Calbiochem, Gibbstown, N.J.) as a reporter β-lactamase substrate for activity in the isolated fractions. Active fractions were pooled, concentrated and further purified by gel filtration chromatography on a Superdex 75 prep grade gel filtration column (GE Healthcare, Piscataway, N.J.) pre-equilibrated in 50 mM Hepes pH 7.5, 150 mM NaCl. Active fractions were pooled concentrated, quantitated by BCA protein determination (Thermo Scientific, Rockford, Ill.), and frozen at −80° C. in 20% glycerol until use.
(§2) β-lactamase Inhibition. To determine the level of inhibition of β-lactamase enzymes, compounds were diluted in PBS at pH 7.0 to yield concentrations between 100 and 0.005 μM in microtiter plates. An equal volume of diluted enzyme stock was added, and the plates were incubated at 37° C. for 10 min. Nitrocefin solution was then dispensed as substrate into each well at a final concentration of 100 μM, and the plates were immediately read with the kinetic program at 486 nm for 10 min on the SPECTRAMAX® Plus^384 (high-throughput microplate spectrophotometer; Molecular Devices Corp., Sunnyvale, Calif.). Maximum rates of metabolism were then compared to those in control wells (without inhibitors), and percentages of enzyme inhibition were calculated for each concentration of inhibitor. The concentration of inhibitor needed to reduce the initial rate of hydrolysis of substrate by 50% (IC50) was calculated as the residual activity of β-lactamase at 486 nm using the SoftMax Pro 5.0 software (Molecular Devices Corp.).
(§3) Using the methodology described above, examples of the current invention were evaluated for their ability to inhibit β-lactamase enzymes. The results of these assays are summarized in Table 2 for representative enzymes across different subtypes (note SHV-5 and CTXM-15 exemplify different subclasses of Ambler Class A Extended Spectrum Beta Lactamases, KPC-2 exemplifies Class A carbapenemases, P99 represents chromosomal Class C AmpC, VIM-2 exemplifies subclass B1 of metallo-β-lactamases, and OXA-23 represents chromosome-encoded Class D oxacillin-hydrolyzing β-lactamases), NT=not tested.

[1] = tested on: K. pneumoniae expressing the Class A carbapenemase KPC-2; assay: microbe, parasite or virus in culture; format: cell-based; conditions: in presence of Ceftazidime 8 μg/ml (Examples 1-56)
Text: (§4) To determine the ability of test compounds to potentiate the inhibition of the growth of bacterial strains producing beta-lactamase enzymes, classic cell based screening assays were employed. Five bacteria strains producing beta-lactamase enzymes were used: K. pneumoniae expressing the Class A Extended Spectrum Beta-Lactamase (ESBL) CTX-M-15, E. coli expressing the Class A ESBL SHV-5, E. cloacae expressing the Class C P99+, K. pneumoniae expressing the Class A carbapenemase KPC-2, and P. aeruginosa expressing the Class B metallo β-lactamase VIM-2. In order to evaluate the ability of test compounds to inhibit beta-lactamase activity, Applicants used a modification of the broth microdilution assay. The assay was conducted in Cation Adjusted Mueller Hinton Broth (CAMHB, BD # 212322, BD Diagnostic Systems, Sparks, Md.). Bacteria strains were grown for 3-5 hours in CAMBH broth. All five strains were grown in presence of 50 μg/mL ampicillin to ensure resistance is maintained. In the meantime, test compounds were diluted in DMSO to a 0.1 mg/mL stock. The compounds were added to a microtiter plate and were diluted in 2-fold serial dilutions in CAMHB in a final concentration range of 8 μg/mL to 0.015 μg/ml. […] Each of these compound plates are made in quadruplicate, one for each bacteria strain. In addition to the titration of test compounds the MICs of a panel of cephalosporins is also tested to ensure the strains are behaving consistently from test to test. Once the test compound and cephalosporin are added the plates can be inoculated. Inocula are conducted according to CLSI broth microdilution method. After inoculation the plates are incubated for 16-20 hours at 37° C. then the Minimal Inhibitory Concentration (MIC) of the test compound is determined visually.
(§5) Using the methodology described above, examples of the current invention were evaluated for their ability to inhibit the growth of β-lactamase producing bacteria in the presence of a β-lactam antibiotic.

KPC-2 β-lactamase = molecular target: T2, KPC-2 β-lactamase (Klebsiella pneumoniae, UniProt Q9F663); assay: β-lactamase enzyme inhibition assay (nitrocefin substrate), KPC-2; format: biochemical
T2 construct: expressed as native untagged proteins; made in house; host or cells: E. coli BL21(DE3)
T2 sequence (Q9F663 25-293 limits assumed): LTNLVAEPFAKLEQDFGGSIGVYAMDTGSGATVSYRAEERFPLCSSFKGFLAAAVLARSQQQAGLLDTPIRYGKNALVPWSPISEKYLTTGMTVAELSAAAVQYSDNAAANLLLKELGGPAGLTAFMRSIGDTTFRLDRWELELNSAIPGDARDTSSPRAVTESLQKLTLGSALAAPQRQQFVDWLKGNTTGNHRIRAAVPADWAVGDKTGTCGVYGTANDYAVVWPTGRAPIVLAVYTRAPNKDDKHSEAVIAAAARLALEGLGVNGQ
Experimental: as §1, §2, §3

[2] = tested on: E. coli expressing the Class A ESBL SHV-5; assay: In vitro antibacterial assay of β-lactamase inhibition (broth microdilution MIC), E. coli SHV-5; format: cell-based; conditions: in presence of Ceftazidime 8 μg/ml (Examples 1-56)
Text: as §4, §5

[3] = tested on: P. aeruginosa expressing the Class B metallo β-lactamase VIM-2; assay: In vitro antibacterial assay of β-lactamase inhibition (broth microdilution MIC), P. aeruginosa VIM-2; format: cell-based; conditions: in presence of Ceftazidime 16 μg/mL (Examples 1-56)
Text: as §4, §5

[4] = tested on: K. pneumoniae expressing the Class A Extended Spectrum Beta-Lactamase (ESBL) CTX-M-15; assay: In vitro antibacterial assay of β-lactamase inhibition (broth microdilution MIC), K. pneumoniae CTX-M-15; format: cell-based; conditions: in presence of Ceftazidime 8 μg/ml (Examples 1-56)
Text: as §4, §5

SHV-5 β-lactamase = molecular target: T3, SHV-5 β-lactamase (Klebsiella pneumoniae, UniProt P0A3M1); assay: β-lactamase enzyme inhibition assay (nitrocefin substrate), SHV-5; format: biochemical
T3 construct: expressed as native untagged proteins; made in house; host or cells: E. coli BL21(DE3)
T3 sequence (P0A3M1 22-286): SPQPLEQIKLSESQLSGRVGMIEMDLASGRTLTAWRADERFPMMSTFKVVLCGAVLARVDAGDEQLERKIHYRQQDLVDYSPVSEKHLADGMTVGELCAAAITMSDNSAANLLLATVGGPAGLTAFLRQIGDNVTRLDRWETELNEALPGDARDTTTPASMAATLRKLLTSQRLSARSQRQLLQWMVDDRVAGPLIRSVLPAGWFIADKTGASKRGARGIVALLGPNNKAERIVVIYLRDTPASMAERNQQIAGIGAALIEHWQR
Experimental: as §1, §2, §3

CTX-M15 β-lactamase = molecular target: T4, CTX-M15 β-lactamase (Escherichia coli, UniProt Q9EXV5); assay: β-lactamase enzyme inhibition assay (nitrocefin substrate), CTXM-15; format: biochemical
T4 construct: expressed as native untagged proteins; made in house; host or cells: E. coli BL21(DE3)
T4 sequence (Q9EXV5 entry or part of it): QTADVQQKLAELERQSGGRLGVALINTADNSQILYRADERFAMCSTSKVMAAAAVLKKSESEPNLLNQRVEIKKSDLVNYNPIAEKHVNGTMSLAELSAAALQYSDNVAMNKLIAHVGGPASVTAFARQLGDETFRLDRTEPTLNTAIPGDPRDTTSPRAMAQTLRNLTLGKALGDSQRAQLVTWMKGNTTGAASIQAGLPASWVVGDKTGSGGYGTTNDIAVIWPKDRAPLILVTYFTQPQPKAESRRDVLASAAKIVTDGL
Experimental: as §1, §2, §3

[5] = tested on: E. cloacae expressing the Class C P99+; assay: In vitro antibacterial assay of β-lactamase inhibition (broth microdilution MIC), E. cloacae P99+; format: cell-based; conditions: in presence of Ceftazidime 8 μg/ml (Examples 1-56)
Text: as §4, §5

[6] = nitrocefin 100 μM, 37° C., PBS pH 7.0, read-out: P99 AmpC IC50

| Compound | IC50 (p99 AmpC β-lactamase; [6]) | MIC of example compound, K. pneumoniae KPC-2 [1] | IC50 (KPC-2 β-lactamase) | MIC of example compound, E. coli SHV-5 [2] | MIC of example compound, P. aeruginosa VIM-2 [3] | MIC of example compound, K. pneumoniae CTX-M-15 [4] | IC50 (SHV-5 β-lactamase) | IC50 (CTX-M15 β-lactamase) | MIC of example compound, E. cloacae P99+ [5] | IC50 (p99 AmpC β-lactamase) | IC50 (KPC-2 β-lactamase; nitrocefin 100 μM, 37° C., PBS pH 7.0, read-out: KPC-2 IC50) | IC50 (SHV-5 β-lactamase; nitrocefin 100 μM, 37° C., PBS pH 7.0, read-out: SHV-5 IC50) | IC50 (CTX-M15 β-lactamase; nitrocefin 100 μM, 37° C., PBS pH 7.0, read-out: CTXM-15 IC50) |
| --- | --- | --- | --- | --- | --- | --- | --- | --- | --- | --- | --- | --- | --- |
| CC(=O)N(CCN)Cc1cccc(C(=O)N[C@@H](Cc2cccc(C(=O)O)c2O)B(O)O)c1 [Example 24, (1R)-(3-{[acetyl-(2-amino-ethyl)-amino]-methyl}-benzoylamino)-(3-carboxy-2-hydroxy)benzyl-methylboronic acid formate] | 2 nM | 0.12 µg/mL | 18 nM | 8 µg/mL | >8 µg/mL | 1 µg/mL | 350 nM | 4 nM | 1 µg/mL | – | – | – | – |
| O=C(N[C@@H](Cc1cccc(C(=O)O)c1O)B(O)O)c1cccc(CNCCCO)c1 [Example 25, (1R)-[3-{(3-hydroxy-propylamino)-methyl}-benzoylamino]-(3-carboxy-2hydroxy)benzyl-methylboronic acid formate] | 0.9 nM | 0.03 µg/mL | 20 nM | 8 µg/mL | >8 µg/mL | 1 µg/mL | 580 nM | 3 nM | 0.5 µg/mL | – | – | – | – |
| O=C(N[C@@H](Cc1cccc(C(=O)O)c1O)B(O)O)c1cccc(CNc2cccnc2)c1 [Example 26, (1R)-[3-(pyridin-3-ylaminomethyl)-benzoylamino]-(3-carboxy-2hydroxy)benzyl-methylboronic acid formate] | 0.4 nM | 0.5 µg/mL | 11 nM | >8 µg/mL | >8 µg/mL | 4 µg/mL | 94 nM | 1 nM | 2 µg/mL | – | – | – | – |
| CN(C)Cc1cccc(C(=O)N[C@@H](Cc2cccc(C(=O)O)c2O)B(O)O)c1 [Example 27, (1R)-(3-dimethylaminomethyl-benzoylamino)-(3-carboxy-2-hydroxy)benzyl-methylboronic acid formate] | 1.4 nM | 0.03 µg/mL | 14 nM | >8 µg/mL | >8 µg/mL | 1 µg/mL | 312 nM | 3 nM | 0.5 µg/mL | – | – | – | – |
| CC(C)(O/N=C(\C(=O)N[C@@H](Cc1cccc(C(=O)O)c1O)B(O)O)c1csc(NC(=O)CN)n1)C(=O)O.Cl [Example 50, 3-{2(R)-[2-[2-(2-amino-acetylamino)-thiazol-4-yl]-2(Z)-(1-carboxy-1-methyl-ethoxyimino)-acetylamino]-2-borono-ethyl}-2-hydroxy-benzoic acid hydrochloride] | 23 nM | >8 µg/mL | 158 nM | >8 µg/mL | >8 µg/mL | >8 µg/mL | 24 nM | 34 nM | >8 µg/mL | – | – | – | – |
| CO/N=C(\C(=O)N[C@@H](Cc1cccc(C(=O)O)c1O)B(O)O)c1csc(NC(=O)CN)n1.Cl [Example 51, 3-(2(R)-{2-[2-(2-amino-acetylamino)-thiazol-4-yl]-2(Z)-methoxyimino-acetylamino}-2-borono-ethyl)-2-hydroxy-benzoic acid hydrochloride] | 17 nM | >8 µg/mL | 58 nM | >8 µg/mL | >8 µg/mL | >8 µg/mL | 15 nM | 40 nM | >8 µg/mL | – | – | – | – |
| CO/N=C(\C(=O)N[C@@H](Cc1cccc(C(=O)O)c1O)B(O)O)c1csc(NC(=O)[C@@H](N)CCCCN)n1 [Example 52, 3-(2(R)-{2-[2-(2(S),6-diamino-hexanoylamino)-thiazol-4-yl]-2(Z)-methoxyimino-acetylamino}-2-borono-ethyl)-2-hydroxy-benzoic acid hydrochloride] | – | 2 µg/mL | 89 nM | >8 µg/mL | >8 µg/mL | >8 µg/mL | 26 nM | 55 nM | >8 µg/mL | 8 nM | – | – | – |
| (1R)-[4-(1-amino-cyclopropyl)]-benzoylamino]-(3-carboxy-2-hydroxy)benzyl-methylboronic acid formate [Example 22] | 34 nM | 0.007 µg/mL | – | 8 µg/mL | >8 µg/mL | 2 µg/mL | – | – | 0.5 µg/mL | – | 5 nM | > 1000 nM | 0.6 nM |
